US8980911B2, “Heterocyclic compounds as protein kinase inhibitors” (Daiichi Sankyo Company, Limited, priority 2011, dated 2015)

Assays:
Type in all cases: biochemical
JAK3 = biological target: T1, JAK3 (Homo sapiens, UniProt P52333); assay: In vitro enzyme assay (cell-free HTRF kinase assay), JAK3; conditions: catalytic domain, His-tag; ATP 3 μM, SRCtide 100 nM, reaction 30 min
T1 construct: All enzymes only contain the catalytic domain; His (N); purchased Carna Bioscience, Inc; host or cells: baculovirus expression system
T1 sequence (P52333 822-1111 limits assumed): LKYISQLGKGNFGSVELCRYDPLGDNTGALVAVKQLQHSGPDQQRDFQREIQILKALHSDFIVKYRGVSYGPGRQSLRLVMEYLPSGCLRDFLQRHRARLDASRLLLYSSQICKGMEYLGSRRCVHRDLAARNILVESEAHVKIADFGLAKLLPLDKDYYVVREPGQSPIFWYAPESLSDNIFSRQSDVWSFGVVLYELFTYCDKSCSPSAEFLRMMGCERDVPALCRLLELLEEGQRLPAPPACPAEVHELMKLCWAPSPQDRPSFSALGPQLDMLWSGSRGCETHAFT
How it was run: (§1)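 Catalytic-domain human kinases (baculovirus-expressed; JAK1 GST-tagged aa 850-1154, JAK2/JAK3 His-tagged) reacted with biotin-SRCtide and ATP in HEPES pH 7.5, MgCl2, DTT buffer, 1% DMSO, at room temperature. EDTA stop (10 mM final), then ULight-streptavidin/Eu-anti-phosphotyrosine overnight at 4 °C; HTRF 665/615 ratio gave IC50.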

JAK1 = biological target: T2, JAK1 (Homo sapiens, UniProt P23458); assay: In vitro enzyme assay (cell-free HTRF kinase assay), JAK1; conditions: catalytic domain aa 850-1154, GST-tag; ATP 60 μM, SRCtide 400 nM, reaction 120 min
T2 construct: JAK1 (aa 850-1154) and TYK2 (aa 871-1187) are expressed with an N-terminally fused GST-tag; GST (N); purchased Carna Bioscience, Inc; host or cells: baculovirus expression system
T2 sequence (P23458 850-1154): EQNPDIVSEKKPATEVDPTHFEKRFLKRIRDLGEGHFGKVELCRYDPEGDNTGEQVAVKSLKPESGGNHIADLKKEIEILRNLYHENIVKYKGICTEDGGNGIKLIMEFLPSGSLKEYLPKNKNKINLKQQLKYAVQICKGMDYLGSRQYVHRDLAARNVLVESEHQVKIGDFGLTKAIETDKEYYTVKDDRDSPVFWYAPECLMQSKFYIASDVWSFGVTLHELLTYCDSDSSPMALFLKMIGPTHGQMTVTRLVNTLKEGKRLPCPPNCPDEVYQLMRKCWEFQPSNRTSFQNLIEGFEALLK
How it was run: as §1

JAK2 = biological target: T3, JAK2 (Homo sapiens, UniProt O60674); assay: In vitro enzyme assay (cell-free HTRF kinase assay), JAK2; conditions: catalytic domain, His-tag; ATP 10 μM, SRCtide 25 nM, reaction 30 min
T3 construct: All enzymes only contain the catalytic domain; His (N); purchased Carna Bioscience, Inc; host or cells: baculovirus expression system
T3 sequence (O60674 849-1124 limits assumed): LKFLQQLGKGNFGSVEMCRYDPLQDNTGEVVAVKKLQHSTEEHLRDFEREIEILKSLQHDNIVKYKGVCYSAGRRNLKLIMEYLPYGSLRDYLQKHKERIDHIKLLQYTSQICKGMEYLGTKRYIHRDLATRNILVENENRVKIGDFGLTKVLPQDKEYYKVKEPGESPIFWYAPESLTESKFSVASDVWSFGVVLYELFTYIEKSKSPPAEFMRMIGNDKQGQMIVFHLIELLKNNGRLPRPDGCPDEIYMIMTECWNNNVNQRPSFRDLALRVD
How it was run: as §1

Structure (SMILES) | IC50 (JAK3) | IC50 (JAK1) | IC50 (JAK2)
O=C(NCC(O)CO)c1cc(Cl)c(C(=O)n2ccc3c(NC(=O)C4CC4)nccc32)c(Cl)c1 (stereo not drawn) [Compound No. 143, 3,5-Dichloro-4-({4-[(cyclopropylcarbonyl)amino]-1H-pyrrolo[3,2-c]pyridin-1-yl}carbonyl)-N-(2,3-dihydroxypropyl)benzamide] | < 50 nM | < 1000 nM | < 500 nM
O=C(NCc1ccccn1)c1cc(Cl)c(C(=O)n2ccc3c(NC(=O)C4CC4)nccc32)c(Cl)c1 [Compound No. 147, 3,5-Dichloro-4-({4-[(cyclopropylcarbonyl)amino]-1H-pyrrolo[3,2-c]pyridin-1-yl}carbonyl)-N-(pyridin-2-ylmethyl)benzamide] | < 500 nM | < 500 nM | < 500 nM
O=C(NCCN1CCCC1)c1cc(Cl)c(C(=O)n2ccc3c(NC(=O)C4CC4)nccc32)c(Cl)c1 [Compound No. 148, 3,5-Dichloro-4-({4-[(cyclopropylcarbonyl)amino]-1H-pyrrolo[3,2-c]pyridin-1-yl}carbonyl)-N-[2-(pyrrolidin-1-yl)ethyl]benzamide] | < 100 nM | < 500 nM | < 500 nM
O=C(NCCCN1CCOCC1)c1cc(Cl)c(C(=O)n2ccc3c(NC(=O)C4CC4)nccc32)c(Cl)c1 [Compound No. 149, 3,5-Dichloro-4-({4-[(cyclopropylcarbonyl)amino]-1H-pyrrolo[3,2-c]pyridin-1-yl}carbonyl)-N-[3-(morpholin-4-yl)propyl]benzamide] | < 500 nM | < 500 nM | < 1000 nM
O=C(NCCN1CCCCC1)c1cc(Cl)c(C(=O)n2ccc3c(NC(=O)C4CC4)nccc32)c(Cl)c1 [Compound No. 150, 3,5-Dichloro-4-({4-[(cyclopropylcarbonyl)amino]-1H-pyrrolo[3,2-c]pyridin-1-yl}carbonyl)-N[2-(piperidin-1-yl)ethyl]benzamide] | < 500 nM | < 500 nM | < 500 nM
CC(CO)NC(=O)c1cc(Cl)c(C(=O)n2ccc3c(NC(=O)C4CC4)nccc32)c(Cl)c1 (stereo not drawn) [Compound No. 151, 3,5-Dichloro-4-({4-[(cyclopropylcarbonyl)amino]-1H-pyrrolo[3,2-c]pyridin-1-yl}carbonyl)-N-(1-hydroxypropan-2-yl)benzamide] | < 500 nM | < 1000 nM | < 500 nM
O=C(NCCF)c1cc(Cl)c(C(=O)n2ccc3c(NC(=O)C4CC4)nccc32)c(Cl)c1 [Compound No. 154, 3,5-Dichloro-4-({4-[(cyclopropylcarbonyl)amino]-1H-pyrrolo[3,2-c]pyridin-1-yl}carbonyl)-N-(2-fluoroethyl)benzamide] | < 500 nM | < 1000 nM | < 500 nM
CNCc1cc(Cl)c(C(=O)n2ccc3c(NC(=O)C4CC4)nccc32)c(Cl)c1 [Compound No. 163, N-(1-{2,6-Dichloro-4-[(methylamino)methyl]benzoyl}-1H-pyrrolo[3,2-c]pyridin-4-yl)cyclopropanecarboxamide] | < 100 nM | < 500 nM | < 500 nM
CCNCc1cc(Cl)c(C(=O)n2ccc3c(NC(=O)C4CC4)nccc32)c(Cl)c1 [Compound No. 164, N-(1-{2,6-Dichloro-4-[(ethylamino)methyl]benzoyl}-1H-pyrrolo[3,2-c]pyridin-4-yl)cyclopropanecarboxamide] | < 500 nM | < 500 nM | < 500 nM
O=C(Nc1nccc2c1ccn2C(=O)c1c(Cl)cc(CNCCN2CCNC2=O)cc1Cl)C1CC1 [Compound No. 165, N-{1-[2,6-Dichloro-4-({[2-(2-oxoimidazolidin-1-yl)ethyl]amino}methyl)benzoyl]-1H-pyrrolo[3,2-c]pyridin-4-yl}cyclopropanecarboxamide] | < 500 nM | < 1000 nM | < 500 nM
O=C(Nc1nccc2c1ccn2C(=O)c1c(Cl)cc(CNCCCN2CCOCC2)cc1Cl)C1CC1 [Compound No. 166, N-{1-[2,6-Dichloro-4-({[3-(morpholin-4-yl)propyl]amino}methyl)benzoyl]-1H-pyrrolo[3,2-c]pyridin-4-yl}cyclopropanecarboxamide] | < 500 nM | < 500 nM | < 1000 nM
O=C(Nc1nccc2c1ccn2C(=O)c1c(Cl)cc(CNCCCO)cc1Cl)C1CC1 [Compound No. 167, N-[1-(2,6-Dichloro-4-{[(3-hydroxypropyl)amino]methyl}benzoyl)-1H-pyrrolo[3,2-c]pyridin-4-yl]cyclopropanecarboxamide] | < 500 nM | < 500 nM | < 500 nM
O=C(NCCn1cccc1)c1cc(Cl)c(C(=O)n2ccc3c(NC(=O)C4CC4)nccc32)c(Cl)c1 [Compound No. 168, 3,5-Dichloro-4-({4-[(cyclopropylcarbonyl)amino]-1H-pyrrolo[3,2-c]pyridin-1-yl}carbonyl)-N-[2-(1H-pyrrol-1-yl)ethyl]benzamide] | < 500 nM | < 1000 nM | < 1000 nM
O=C(NCCc1cccnc1)c1cc(Cl)c(C(=O)n2ccc3c(NC(=O)C4CC4)nccc32)c(Cl)c1 [Compound No. 169, 3,5-Dichloro-4-({4-[(cyclopropylcarbonyl)amino]-1H-pyrrolo[3,2-c]pyridin-1-yl}carbonyl)-N-[2-(pyridin-3-yl)ethyl]benzamide] | < 1000 nM | < 1000 nM | < 500 nM
O=C(NCC1CC1)c1cc(Cl)c(C(=O)n2ccc3c(NC(=O)C4CC4)nccc32)c(Cl)c1 [Compound No. 170, 3,5-Dichloro-4-({4-[(cyclopropylcarbonyl)amino]-1H-pyrrolo[3,2-c]pyridin-1-yl}carbonyl)-N-(cyclopropylmethyl)benzamide] | < 1000 nM | < 500 nM | < 1000 nM
O=C(NCC1CCCNC1)c1cc(Cl)c(C(=O)n2ccc3c(NC(=O)C4CC4)nccc32)c(Cl)c1 (stereo not drawn) [Compound No. 171, 3,5-Dichloro-4-({4-[(cyclopropylcarbonyl)amino]-1H-pyrrolo[3,2-c]pyridin-1-yl}carbonyl)-N-(piperidin-3-ylmethyl)benzamide] | < 100 nM | < 500 nM | < 100 nM
